Measured values taken from patent US20250311727A1, “SUBSTITUTED 2-AMINOAZINES AND SALTS THEREOF, AND USE THEREOF AS HERBICIDAL ACTIVE SUBSTANCES” (BAYER AKTIENGESELLSCHAFT, priority 2022, published 2025).

How the values were obtained:
Format in all cases: in vivo
Amaranthus retroflexus [1] = test: Pre-emergence herbicide efficacy at 320 g/ha, AMARE; settings: scored visually after about 3 weeks vs untreated controls, 100% = plants have died
Method in brief: (§1)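 Compound formulated as wettable powder or emulsion concentrate is applied onto covered, sown sandy loam soil with 0.5% additive. Plants grow under greenhouse conditions, and after roughly 3 weeks weed control is rated by eye as a percentage relative to untreated pots.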

Viola tricolor [2] = test: Post-emergence herbicidal efficacy at 80 g/ha, VIOTR; settings: rated visually after about 3 weeks vs untreated controls, 100% = plants have died
From the text: (§2) Unwanted plants/weeds: • ABUTH: Abutilon theophrasti • ALOMY: Alopecurus myosuroides • AMARE: Amaranthus retroflexus • DIGSA: Digitaria sanguinalis • ECHCG: Echinochloa crus-galli • KCHSC: Kochia scoparia • LOLRI: Lolium rigidum • MATIN: Matricaria inodora • POAAN: Poa annua • POLCO: Polygonum convolvulus • SETVI: Setaria viridis • STEME: Stellaria media • VERPE: Veronica persica • VIOTR: Viola tricolor A. Post-Emergence Herbicidal Efficacy at 320 g/ha
(§3) Seeds of monocotyledonous and dicotyledonous weeds and crop plants were placed in sandy loam in plastic or organic planting pots, covered with soil and cultivated in a greenhouse under controlled growth conditions. 2 to 3 weeks after sowing, the test plants were treated at the one-leaf stage. The compounds of the invention, formulated in the form of wettable powders (WP) or as emulsion concentrates (EC), were then sprayed onto the green parts of the plants as aqueous suspension or emulsion with addition of 0.5% additive at a water application rate of 600 l/ha (converted). After the test plants had been kept in the greenhouse under optimum growth conditions for about 3 weeks, the activity of the preparations was rated visually in comparison to untreated controls. For example, 100% activity=the plants have died, 0% activity=like control plants.
(§4) Tables B1 to B11 below show the effects of selected compounds of the general formula (I) according to Table 1 on various harmful plants and an application rate corresponding to 80 g/ha, which were obtained by the experimental procedure mentioned above.

Setaria viridis [3] = test: Pre-emergence herbicide efficacy at 320 g/ha, SETVI; settings: scored visually after about 3 weeks vs untreated controls, 100% = plants have died
Method in brief: as §1

Stellaria media [4] = test: Pre-emergence herbicide efficacy at 320 g/ha, STEME; settings: scored visually after about 3 weeks vs untreated controls, 100% = plants have died
Method in brief: as §1

Poa annua [5] = test: Post-emergence herbicidal efficacy at 320 g/ha, POAAN; settings: rated visually after about 3 weeks vs untreated controls, 100% = plants have died
From the text: as §2
(§5) Seeds of mono- and dicotyledonous weed plants were placed in plastic pots in sandy loam soil (doubly sown with in each case one species of mono- or dicotyledonous weed plants per pot), covered with soil and cultivated in a greenhouse under controlled growth conditions. 2 to 3 weeks after sowing, the test plants were treated at the one-leaf stage. The compounds of the invention, formulated in the form of wettable powders (WP) or as emulsion concentrates (EC), were applied to the green parts of the plants as aqueous suspension or emulsion with addition of 0.5% additive at a water application rate equivalent to 600 litres per hectare. After the test plants had been kept in the greenhouse under optimum growth conditions for about 3 weeks, the activity of the preparations was rated visually in comparison to untreated controls.
(§6) For example, 100% activity=the plants have died, 0% activity=like control plants.
(§7) Tables A1 to A10 below show the effects of selected compounds of the general formula (I) according to Table 1 on various harmful plants and at an application rate corresponding to 320 g/ha, which were obtained by the trial procedure specified above.

Digitaria sanguinalis [6] = test: Pre-emergence herbicide efficacy at 80 g/ha, DIGSA; settings: scored visually after about 3 weeks vs untreated controls, 100% = plants have died
From the text: as §2
(§8) Seeds of monocotyledonous and dicotyledonous weed plants and crop plants were placed in plastic or organic planting pots and covered with soil. The compounds of the invention, formulated in the form of wettable powders (WP) or as emulsion concentrates (EC), were then applied to the surface of the covering soil as aqueous suspension or emulsion with addition of 0.5% additive at a water application rate equivalent to 600 l/ha. After the treatment, the pots were placed in a greenhouse and kept under good growth conditions for the test plants. After about 3 weeks, the efficacy of the preparations was scored visually in comparison with untreated controls as percentages. For example, 100% activity=the plants have died, 0% activity=like control plants.
(§9) Tables D1 to D12 below show the effects of selected compounds of the general formula (I) according to Table 1 on various harmful plants and an application rate corresponding to 80 g/ha, which were obtained by the experimental procedure mentioned above.

Kochia scoparia [7] = test: Post-emergence herbicidal efficacy at 80 g/ha, KCHSC; settings: rated visually after about 3 weeks vs untreated controls, 100% = plants have died
From the text: as §2, §3, §4

Poa annua [8] = test: Pre-emergence herbicide efficacy at 320 g/ha, POAAN; settings: scored visually after about 3 weeks vs untreated controls, 100% = plants have died
From the text: as §2
(§10) Seeds of mono- and dicotyledonous weed plants were placed in plastic pots in sandy loam soil (doubly sown with one species each of mono- or dicotyledonous weed plants per pot) and covered with soil. The compounds of the invention, formulated in the form of wettable powders (WP) or as emulsion concentrates (EC), were then applied to the surface of the covering soil as aqueous suspension or emulsion with addition of 0.5% additive at a water application rate of 600 litres per hectare (converted). After the treatment, the pots were placed in a greenhouse and kept under good growth conditions for the test plants. After about 3 weeks, the efficacy of the preparations was scored visually in comparison with untreated controls as percentages.
as §6
(§11) Tables C1 to C12 below show the effects of selected compounds of the general formula (I) according to Table 1 on various harmful plants and at an application rate corresponding to 320 g/ha, which were obtained by the trial procedure specified above.

Stellaria media [9] = test: Post-emergence herbicidal efficacy at 320 g/ha, STEME; settings: rated visually after about 3 weeks vs untreated controls, 100% = plants have died
Method in brief: (§12)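 Effects are visual ratings taken about three weeks after foliar application, scaled from 0% (as untreated control) to 100% (plants died). Application was at the one-leaf stage in greenhouse-grown pots.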

Matricaria inodora [10] = test: Pre-emergence herbicide efficacy at 320 g/ha, MATIN; settings: scored visually after about 3 weeks vs untreated controls, 100% = plants have died
From the text: as §2, §10, §6, §11

Matricaria inodora [11] = test: Pre-emergence herbicide efficacy at 80 g/ha, MATIN; settings: scored visually after about 3 weeks vs untreated controls, 100% = plants have died
From the text: as §2, §8, §9

Veronica persica [12] = test: Pre-emergence herbicide efficacy at 320 g/ha, VERPE; settings: scored visually after about 3 weeks vs untreated controls, 100% = plants have died
Method in brief: as §1

Abutilon theophrasti [13] = test: Pre-emergence herbicide efficacy at 320 g/ha, ABUTH; settings: scored visually after about 3 weeks vs untreated controls, 100% = plants have died
From the text: as §2, §10, §6, §11

Kochia scoparia [14] = test: Post-emergence herbicidal efficacy at 320 g/ha, KCHSC; settings: rated visually after about 3 weeks vs untreated controls, 100% = plants have died
Method in brief: as §12

Digitaria sanguinalis [15] = test: Pre-emergence herbicide efficacy at 320 g/ha, DIGSA; settings: scored visually after about 3 weeks vs untreated controls, 100% = plants have died
Method in brief: as §1

Polygonum convolvulus = test: Pre-emergence herbicide efficacy at 80 g/ha, POLCO; settings: scored visually after about 3 weeks vs untreated controls, 100% = plants have died
From the text: as §2, §8, §9

Setaria viridis [16] = test: Post-emergence herbicidal efficacy at 320 g/ha, SETVI; settings: rated visually after about 3 weeks vs untreated controls, 100% = plants have died
From the text: as §2, §5, §6, §7

Setaria viridis [17] = test: Pre-emergence herbicide efficacy at 80 g/ha, SETVI
From the text: as §2, §8, §9

Abutilon theophrasti [18] = test: Post-emergence herbicidal efficacy at 320 g/ha, ABUTH; settings: rated visually after about 3 weeks vs untreated controls, 100% = plants have died
Method in brief: as §12

Echinochloa crus-galli [19] = test: Pre-emergence herbicide efficacy at 320 g/ha, ECHCG; settings: scored visually after about 3 weeks vs untreated controls, 100% = plants have died
From the text: as §2, §10, §6, §11

Amaranthus retroflexus [20] = test: Post-emergence herbicidal efficacy at 80 g/ha, AMARE; settings: rated visually after about 3 weeks vs untreated controls, 100% = plants have died
Method in brief: (§13)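 Post-emergence greenhouse test: one-leaf weeds sprayed with formulated compound (0.5% additive, 600 l/ha), visually rated about 3 weeks later against untreated controls.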

Kochia scoparia [21] = test: Pre-emergence herbicide efficacy at 320 g/ha, KCHSC; settings: scored visually after about 3 weeks vs untreated controls, 100% = plants have died
Method in brief: as §1

Echinochloa crus-galli [22] = test: Pre-emergence herbicide efficacy at 80 g/ha, ECHCG; settings: scored visually after about 3 weeks vs untreated controls, 100% = plants have died
From the text: as §2, §8, §9

Kochia scoparia [23] = test: Pre-emergence herbicide efficacy at 80 g/ha, KCHSC; settings: scored visually after about 3 weeks vs untreated controls, 100% = plants have died
From the text: as §2, §8, §9

Amaranthus retroflexus [24] = test: Pre-emergence herbicide efficacy at 80 g/ha, AMARE; settings: scored visually after about 3 weeks vs untreated controls, 100% = plants have died
From the text: as §2, §8, §9

Echinochloa crus-galli [25] = test: Post-emergence herbicidal efficacy at 320 g/ha, ECHCG; settings: rated visually after about 3 weeks vs untreated controls, 100% = plants have died
From the text: as §2, §5, §6, §7

Veronica persica [26] = test: Pre-emergence herbicide efficacy at 80 g/ha, VERPE
From the text: as §2, §8, §9

Amaranthus retroflexus [27] = test: Post-emergence herbicidal efficacy at 320 g/ha, AMARE; settings: rated visually after about 3 weeks vs untreated controls, 100% = plants have died
Method in brief: as §12

Viola tricolor [28] = test: Pre-emergence herbicide efficacy at 80 g/ha, VIOTR
From the text: as §2, §8, §9

Veronica persica [29] = test: Post-emergence herbicidal efficacy at 320 g/ha, VERPE; settings: rated visually after about 3 weeks vs untreated controls, 100% = plants have died
Method in brief: as §12

Digitaria sanguinalis [30] = test: Post-emergence herbicidal efficacy at 320 g/ha, DIGSA; settings: rated visually after about 3 weeks vs untreated controls, 100% = plants have died
From the text: as §2, §5, §6, §7

Veronica persica [31] = test: Post-emergence herbicidal efficacy at 80 g/ha, VERPE; settings: rated visually after about 3 weeks vs untreated controls, 100% = plants have died
Method in brief: as §13

Abutilon theophrasti [32] = test: Pre-emergence herbicide efficacy at 80 g/ha, ABUTH; settings: scored visually after about 3 weeks vs untreated controls, 100% = plants have died
From the text: as §2, §8, §9

Cc1cnn(-c2c(C#N)cccc2Nc2ncc(Cl)cn2)c1 [Example 1-66]
Pre-emergence efficacy at 320 g/ha against AMARE in % (Amaranthus retroflexus [1]): 100% | Post-emergence efficacy at 80 g/ha against VIOTR in % (Viola tricolor [2]): 90% | Pre-emergence efficacy at 320 g/ha against SETVI in % (Setaria viridis [3]): 100% | Pre-emergence efficacy at 320 g/ha against STEME in % (Stellaria media [4]): 100% | Post-emergence efficacy at 320 g/ha against POAAN in % (Poa annua [5]): 100% | Pre-emergence efficacy at 80 g/ha against DIGSA in % (Digitaria sanguinalis [6]): 100% | Post-emergence efficacy at 80 g/ha against KCHSC in % (Kochia scoparia [7]): 80% | Pre-emergence efficacy at 320 g/ha against POAAN in % (Poa annua [8]): 100% | Post-emergence efficacy at 320 g/ha against STEME in % (Stellaria media [9]): 100% | Pre-emergence efficacy at 320 g/ha against MATIN in % (Matricaria inodora [10]): 90% | Pre-emergence efficacy at 80 g/ha against MATIN in % (Matricaria inodora [11]): 100% | Pre-emergence efficacy at 320 g/ha against VERPE in % (Veronica persica [12]): 100% | Pre-emergence efficacy at 320 g/ha against ABUTH in % (Abutilon theophrasti [13]): 100% | Post-emergence efficacy at 320 g/ha against KCHSC in % (Kochia scoparia [14]): 100% | Pre-emergence efficacy at 320 g/ha against DIGSA in % (Digitaria sanguinalis [15]): 100% | Pre-emergence efficacy at 80 g/ha against POLCO in % (Polygonum convolvulus): 80% | Post-emergence efficacy at 320 g/ha against SETVI in % (Setaria viridis [16]): 90% | Pre-emergence efficacy against SETVI (Setaria viridis [17]): 90% | Post-emergence efficacy at 320 g/ha against ABUTH in % (Abutilon theophrasti [18]): 100% | Pre-emergence efficacy at 320 g/ha against ECHCG in % (Echinochloa crus-galli [19]): 100% | Post-emergence efficacy at 80 g/ha against AMARE in % (Amaranthus retroflexus [20]): 100% | Pre-emergence efficacy at 320 g/ha against KCHSC in % (Kochia scoparia [21]): 100% | Pre-emergence efficacy at 80 g/ha against ECHCG in % (Echinochloa crus-galli [22]): 90% | Pre-emergence efficacy at 80 g/ha against KCHSC in % (Kochia scoparia [23]): 100% | Pre-emergence efficacy at 80 g/ha against AMARE in % (Amaranthus retroflexus [24]): 100% | Post-emergence efficacy at 320 g/ha against ECHCG in % (Echinochloa crus-galli [25]): 100% | Pre-emergence efficacy against VERPE (Veronica persica [26]): 100% | Post-emergence efficacy at 320 g/ha against AMARE in % (Amaranthus retroflexus [27]): 100% | Pre-emergence efficacy against VIOTR (Viola tricolor [28]): 100% | Post-emergence efficacy at 320 g/ha against VERPE in % (Veronica persica [29]): 100% | Post-emergence efficacy at 320 g/ha against DIGSA in % (Digitaria sanguinalis [30]): 90% | Post-emergence efficacy at 80 g/ha against VERPE in % (Veronica persica [31]): 90% | Pre-emergence efficacy at 80 g/ha against ABUTH in % (Abutilon theophrasti [32]): 80%
